Source: patent US20020028953A1, “Process for preparing 6-(4-chlorophenyl)-2,2-dimethyl-7-phenyl-2,3-dihydro-1H-pyrrolizin-5-yl-acetic acid” (Merckle GmbH, priority 2000, published 2002)
Read-outs that look alike come from different tables or passages of the source.

Experiments:
[1] = stability of the solid form on drying, storage and aging; assay type: physicochemical
[2] = molecular target: cyclooxygenase (CO) and lipoxygenase (LO); experiment: inhibitory action on the enzymes cyclooxygenase (CO) and lipoxygenase (LO); assay type: biochemical
analgesic action = settings: result in words

| SMILES | chemical stability / oxidative decomposition [1] | IC50LO/IC50CO ([2]; ratio of IC50 lipoxygenase to IC50 cyclooxygenase) | cyclooxygenase and/or lipoxygenase inhibitor ([2]; result in words) | analgesic action (analgesic action) | chemical stability / oxidative decomposition ([1]; listed as Polymorph A) | stability on drying and storage ([1]; solvates release solvent at room temperature) |
| --- | --- | --- | --- | --- | --- | --- |
| CC1(C)Cc2c(-c3ccccc3)c(-c3ccc(Cl)cc3)c(CC(=O)O)n2C1 [amorphous ML 3000] | relatively severe oxidative decomposition |  |  |  |  |  |
| CC1(C)Cc2c(-c3ccccc3)c(-c3ccc(Cl)cc3)c(CC(=O)O)n2C1 [polymorph A, 6-(4-chlorophenyl)-2,2-dimethyl-7-phenyl-2,3-dihydro-1H-pyrrolizin-5-ylacetic Acid] |  | ~1 | potent | strong | high chemical stability | stable on drying and storage |
